From patent US7862815B2, “Methods for inhibiting angiogenesis with inhibitors of proadrenomedullin N-terminal 20 peptide (PAMP)” (The United States of America as represented by the …, priority 2002, dated 2011)

Tests used:
Assay type in all cases: cell-based
human endothelial cells [1] = experiment: Real-time PCR quantification of gene expression; details: for expression of the AM/PAMP gene: addition of 10 nM peptide
Experimental: Human endothelial cells were cultured in T-75 flasks at a density of 2.5×10^6 cells/well. After the cells were attached to the bottom of the plate, they were treated with 10 nM PAMP in serum-free medium for 24 hours. At the end of this exposure, the cells were washed once with PBS, scraped from the plate and their total RNA was extracted using the RNeasy Mini Kit from Qiagen and reverse transcribed using the SuperScript First-Strand Synthesis system (Invitrogen). Quantification of gene expression was performed by real-time PCR as described (Martinez et al., J. Endocrinol. 176, 95-102, 2003). The PCR reaction was run in an Opticon cycler (MJ Research) using Sybr Green PCR master mix (Applied Biosystems). Thermocycling was performed in a final volume of 25 μl containing 2 μl of cDNA (1:10 dilution) and 400 nM of primers (see below). All targets were amplified in triplicates in the same run as the house-keeping gene, using the following cycle scheme: after initial denaturation of the samples at 95° C. for 2 minutes, 46 cycles of 95° C. for 30 seconds, 60° C. for 30 seconds, and 72° C. for 30 seconds were performed.
Fluorescence was measured in every cycle and mRNA levels were normalized by the 18S RNA values in all samples. A melting curve was run after PCR by increasing temperature from 50° C. to 96° C. (0.5° C. increments). A single peak was obtained for all amplicons, thus confirming the specificity of the reaction.

[2] = system: human microvascular endothelial cells; experiment: Proliferation assay (MTT); details: three days; for endothelial cell proliferation over the control: 10^−8 M, serum-free medium, p<0.001
Experimental: The same microvascular endothelial cells were seeded in 96-well plates at a density of 2.0×10^5 cells per well in serum-free medium containing different concentrations of the test peptides. After three days in culture, the number of viable cells per well was estimated by the MTT assay as reported (Iwai et al., Lung Cancer 23, 209-222, 1999). Results are represented as percentage growth over the untreated control.

[3] = system: Human dermal microvascular endothelial cells; experiment: Calcium measurements (ATP-induced calcium flux); details: 10 nM PAMP, 1 mM ATP
Experimental: Human dermal microvascular endothelial cells were obtained from Cell Applications, Inc. and cultured in 96-well plates at 1.0×10^5 cells per well. The cells were loaded for 60 minutes at room temperature with the fluorescent dye FLIPR (Molecular Devices) and then transferred to the FlexStation II (Molecular Devices) for analysis. The test compounds were prepared in another plate at a concentration of 5× and were added to the proper wells by the robotic arm of the FlexStation II. Fluorescence was measured every five seconds in each well and recorded. One mM ATP (Sigma) was used as a calcium agonist (Lau et al., Life Sci. 73, 20 19-2028, 2003).

human endothelial cells [4] = experiment: Cord formation assay on matrigel; details: overnight incubation on matrigel, FIG. 6C
Experimental: Human endothelial cells were seeded at 2.0×10^5 cells per well over a solid layer of matrigel covering the bottom of a 24-well plate in the presence or absence of the test peptides as described (Nam et al., Phytother. Res. 17, 107-111). After an overnight incubation, the tubular structures were photographed (three pictures per well) and the number of knots per photographic field were counted as a measure of lattice complexity.

| Substance | expression of the AM/PAMP gene (human endothelial cells [1]) | endothelial cell proliferation over the control [2] | expression of PDGF A mRNA (human endothelial cells [1]; 10 nM PAMP, 24 hours) | expression of PDGF B mRNA (human endothelial cells [1]; 10 nM PAMP, 24 hours) | expression of PDGF C mRNA (human endothelial cells [1]; 10 nM PAMP, 24 hours) | expression of VEGF mRNA (human endothelial cells [1]; 10 nM PAMP, 24 hours) | expression of bFGF mRNA (human endothelial cells [1]; 10 nM PAMP, 24 hours) | expression of AM gene mRNA (human endothelial cells [1]; 10 nM PAMP, 24 hours, normalized by 18S RNA) | effect on ATP-induced calcium response [3] | endothelial cell growth ([2]; at the concentrations tested) | efficiency in inducing cord formation (knots per field) (human endothelial cells [4]) |
| --- | --- | --- | --- | --- | --- | --- | --- | --- | --- | --- | --- |
| Adrenomedullin [AM] | indistinguishable from the untreated controls | significantly increase proliferation |  |  |  |  |  |  |  |  |  |
| proadrenomedullin N-terminal 20 peptide (ARLDVASEFRKKWNKWALSR; listed as Homo sapiens) [PAMP, 20 amino-acid molecule originating from the post-translational processing of pre-proadrenomedullin; synthetic human, purchased from Bachem] |  |  | no significant modification | no significant modification | elevating the expression | elevating the expression | elevating the expression | about 50 % over basal levels | greatly reduced | did not significantly modify cell growth | modest effect |
| vascular endothelial growth factor [VEGF] | indistinguishable from the untreated controls | significantly increase proliferation |  |  |  |  |  |  |  |  | most efficient |
